From ChEMBL document CHEMBL1201862, “PubChem BioAssay data set” (2004)
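The compound was tested at five concentrations on cells cultured in 96-well plates, with a 48-hour exposure period. GI50 = concentration required for 50% inhibition of growth.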 Calls of active or inactive are those of the source. No stated cut-off is given here; in the data, active = GI50 up to about 1.1 µM and inactive = higher.

Key:
Experiment in all cases: DTP human tumour cell line panel, 48 h
OVCAR-4 = tested on: OVCAR-4
Malme-3M = tested on: Malme-3M
NCI-H23 = tested on: NCI-H23
K562 = tested on: K562
SR = tested on: SR
SN12C = tested on: SN12C
CCRF-CEM = tested on: CCRF-CEM
A549 = tested on: A549
Hs-578T = tested on: Hs-578T
KM12 = tested on: KM12
LOX IMVI = tested on: LOX IMVI
SK-MEL-28 = tested on: SK-MEL-28
NCI-H460 = tested on: NCI-H460
UO-31 = tested on: UO-31
HCC 2998 = tested on: HCC 2998
UACC-62 = tested on: UACC-62
SW-620 = tested on: SW-620
UACC-257 = tested on: UACC-257
DU-145 = tested on: DU-145
MDA-MB-435 = tested on: MDA-MB-435
HL-60 = tested on: HL-60
RPMI-8226 = tested on: RPMI-8226
CAKI-1 = tested on: CAKI-1
BT-549 = tested on: BT-549
M14 = tested on: M14
ACHN = tested on: ACHN
786-0 = tested on: 786-0
OVCAR-3 = tested on: OVCAR-3
HT-29 = tested on: HT-29
MDA-MB-231 = tested on: MDA-MB-231
RXF 393 = tested on: RXF 393
MDA-N = tested on: MDA-N
HOP-62 = tested on: HOP-62
IGROV-1 = tested on: IGROV-1
T47D = tested on: T47D
HOP-92 = tested on: HOP-92
SK-MEL-5 = tested on: SK-MEL-5
EKVX = tested on: EKVX
SF-268 = tested on: SF-268
HCT-15 = tested on: HCT-15
NCI-H226 = tested on: NCI-H226
NCI/ADR-RES = tested on: NCI/ADR-RES
OVCAR-8 = tested on: OVCAR-8
SK-OV-3 = tested on: SK-OV-3
SNB-19 = tested on: SNB-19
SF-539 = tested on: SF-539
MOLT-4 = tested on: MOLT-4
HCT-116 = tested on: HCT-116
TK-10 = tested on: TK-10
U-251 = tested on: U-251
SF-295 = tested on: SF-295
COLO 205 = tested on: COLO 205
SK-MEL-2 = tested on: SK-MEL-2
MCF7 = tested on: MCF7
PC-3 = tested on: PC-3
OVCAR-5 = tested on: OVCAR-5
A498 = tested on: A498
NCI-H522 = tested on: NCI-H522
SNB-75 = tested on: SNB-75

COc1cc2c(cc1OC)C(=O)/C(=C/c1ccc(N(C)C)cc1)CC2
GI50 (OVCAR-4): > 10 µM (inactive)
GI50 (Malme-3M): > 10 µM (inactive)
GI50 (NCI-H23): > 10 µM (inactive)
GI50 (K562): > 10 µM (inactive)
GI50 (SR): > 10 µM (inactive)
GI50 (SN12C): > 10 µM (inactive)
GI50 (CCRF-CEM): 9.77 µM (inactive)
GI50 (A549): > 10 µM (inactive)
GI50 (Hs-578T): > 10 µM (inactive)
GI50 (KM12): > 10 µM (inactive)
GI50 (LOX IMVI): > 10 µM (inactive)
GI50 (SK-MEL-28): > 10 µM (inactive)
GI50 (NCI-H460): > 10 µM (inactive)
GI50 (UO-31): > 10 µM (inactive)
GI50 (HCC 2998): > 10 µM (inactive)
GI50 (UACC-62): > 10 µM (inactive)
GI50 (SW-620): > 10 µM (inactive)
GI50 (UACC-257): 3.38 µM (inactive)
GI50 (DU-145): > 10 µM (inactive)
GI50 (MDA-MB-435): > 10 µM (inactive)
GI50 (HL-60): > 10 µM (inactive)
GI50 (RPMI-8226): > 10 µM (inactive)
GI50 (CAKI-1): > 10 µM (inactive)
GI50 (BT-549): > 10 µM (inactive)
GI50 (M14): > 10 µM (inactive)
GI50 (ACHN): > 10 µM (inactive)
GI50 (786-0): > 10 µM (inactive)
GI50 (OVCAR-3): > 10 µM (inactive)
GI50 (HT-29): > 10 µM (inactive)
GI50 (MDA-MB-231): > 10 µM (inactive)
GI50 (RXF 393): > 10 µM (inactive)
GI50 (MDA-N): > 10 µM (inactive)
GI50 (HOP-62): > 10 µM (inactive)
GI50 (IGROV-1): > 10 µM (inactive)
GI50 (T47D): > 10 µM (inactive)
GI50 (HOP-92): > 10 µM (inactive)
GI50 (SK-MEL-5): > 10 µM (inactive)
GI50 (EKVX): > 10 µM (inactive)
GI50 (SF-268): > 10 µM (inactive)
GI50 (HCT-15): > 10 µM
GI50 (NCI-H226): > 10 µM (inactive)
GI50 (NCI/ADR-RES): > 10 µM (inactive)
GI50 (OVCAR-8): > 10 µM (inactive)
GI50 (SK-OV-3): > 10 µM (inactive)
GI50 (SNB-19): > 10 µM (inactive)
GI50 (SF-539): > 10 µM (inactive)
GI50 (MOLT-4): > 10 µM (inactive)
GI50 (HCT-116): > 10 µM (inactive)
GI50 (TK-10): > 10 µM (inactive)
GI50 (U-251): > 10 µM (inactive)
GI50 (SF-295): > 10 µM (inactive)
GI50 (COLO 205): > 10 µM (inactive)
GI50 (SK-MEL-2): 0.962 µM (active)
GI50 (MCF7): > 10 µM (inactive)
GI50 (PC-3): > 10 µM (inactive)
GI50 (OVCAR-5): > 10 µM (inactive)

CC1CC(C(=O)OC2OC(COC3OC(CO)C(OC4OC(C)C(O)C(O)C4O)C(O)C3O)C(O)C(O)C2O)C2CCC3(C)C(=CCC4(C)C3CCC3C(C)(CO)C(O)C(O)CC34C)C2C1C (stereo not drawn)
GI50 (OVCAR-4): 15.1 µM (inactive)
GI50 (NCI-H23): 16.3 µM (inactive)
GI50 (K562): 34.3 µM (inactive)
GI50 (SR): 17.9 µM (inactive)
GI50 (A498): > 10 µM (inactive)
GI50 (SN12C): 20.7 µM (inactive)
GI50 (CCRF-CEM): 21.9 µM (inactive)
GI50 (A549): 96.6 µM (inactive)
GI50 (Hs-578T): 17.7 µM (inactive)
GI50 (KM12): 17.9 µM (inactive)
GI50 (LOX IMVI): 21.7 µM (inactive)
GI50 (SK-MEL-28): 17 µM (inactive)
GI50 (NCI-H460): 20.7 µM (inactive)
GI50 (UO-31): > 100 µM (inactive)
GI50 (HCC 2998): 21.8 µM (inactive)
GI50 (UACC-62): 17.7 µM (inactive)
GI50 (SW-620): 30.1 µM (inactive)
GI50 (UACC-257): > 10 µM (inactive)
GI50 (DU-145): 33.5 µM (inactive)
GI50 (MDA-MB-435): 18.6 µM (inactive)
GI50 (HL-60): 21.6 µM (inactive)
GI50 (RPMI-8226): 21.4 µM (inactive)
GI50 (CAKI-1): > 100 µM (inactive)
GI50 (BT-549): 17.7 µM (inactive)
GI50 (NCI-H522): 13.7 µM (inactive)
GI50 (M14): 35.7 µM (inactive)
GI50 (ACHN): > 10 µM (inactive)
GI50 (786-0): 21 µM (inactive)
GI50 (OVCAR-3): 23.3 µM (inactive)
GI50 (HT-29): 21.8 µM (inactive)
GI50 (MDA-MB-231): 17.9 µM (inactive)
GI50 (MDA-N): 19.5 µM (inactive)
GI50 (HOP-62): 17.7 µM (inactive)
GI50 (IGROV-1): 16.9 µM (inactive)
GI50 (T47D): 18.4 µM (inactive)
GI50 (HOP-92): 17.4 µM (inactive)
GI50 (SK-MEL-5): 18.7 µM (inactive)
GI50 (EKVX): > 10 µM (inactive)
GI50 (SF-268): 19 µM (inactive)
GI50 (HCT-15): > 100 µM
GI50 (NCI-H226): 32.5 µM (inactive)
GI50 (NCI/ADR-RES): > 100 µM (inactive)
GI50 (OVCAR-8): 17.4 µM (inactive)
GI50 (SK-OV-3): 49.1 µM (inactive)
GI50 (SNB-19): 17.4 µM (inactive)
GI50 (SF-539): 18.4 µM (inactive)
GI50 (MOLT-4): 19.6 µM (inactive)
GI50 (HCT-116): 18.2 µM (inactive)
GI50 (TK-10): > 100 µM (inactive)
GI50 (U-251): 17.5 µM (inactive)
GI50 (SF-295): 28.8 µM (inactive)
GI50 (COLO 205): 17.3 µM (inactive)
GI50 (SK-MEL-2): 18.9 µM (inactive)
GI50 (MCF7): 23.7 µM (inactive)
GI50 (SNB-75): 16.9 µM (inactive)
GI50 (PC-3): 29.5 µM (inactive)
GI50 (OVCAR-5): 26.7 µM (inactive)
